# Source: ChEMBL document CHEMBL1201862, “PubChem BioAssay data set” (2004)
#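 Cultured in 96-well plates, cells were exposed to test compound for 48 hours across five concentrations. Here, GI50 denotes the concentration required for 50% inhibition of growth.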 Activity calls are given as the source filed them. Rule as the data show it: active = GI50 up to about 1.1 µM and inactive = higher.
# Columns and labels:
# Assay in all cases: NCI tumour cell line growth inhibition, 48 h
# 786-0 = tested on: 786-0
# A498 = tested on: A498
# A549 = tested on: A549
# ACHN = tested on: ACHN
# CAKI-1 = tested on: CAKI-1
# CCRF-CEM = tested on: CCRF-CEM
# DLD-1 = tested on: DLD-1
# DMS-114 = tested on: DMS-114
# DMS-273 = tested on: DMS-273
# EKVX = tested on: EKVX
# HCC 2998 = tested on: HCC 2998
# HCT-116 = tested on: HCT-116
# HCT-15 = tested on: HCT-15
# HL-60 = tested on: HL-60
# HOP-18 = tested on: HOP-18
# HOP-62 = tested on: HOP-62
# HOP-92 = tested on: HOP-92
# HT-29 = tested on: HT-29
# IGROV-1 = tested on: IGROV-1
# K562 = tested on: K562
# KM-20L2 = tested on: KM-20L2
# KM12 = tested on: KM12
# LOX IMVI = tested on: LOX IMVI
# LXFL 529 = tested on: LXFL 529
# M14 = tested on: M14
# M19-MEL = tested on: M19-MEL
# MOLT-4 = tested on: MOLT-4
# Malme-3M = tested on: Malme-3M
# NCI-H23 = tested on: NCI-H23
# NCI-H460 = tested on: NCI-H460
# NCI-H522 = tested on: NCI-H522
# OVCAR-3 = tested on: OVCAR-3
# OVCAR-4 = tested on: OVCAR-4
# OVCAR-5 = tested on: OVCAR-5
# OVCAR-8 = tested on: OVCAR-8
# RPMI-8226 = tested on: RPMI-8226
# RXF 393 = tested on: RXF 393
# RXF 631 = tested on: RXF 631
# SF-268 = tested on: SF-268
# SF-295 = tested on: SF-295
# SF-539 = tested on: SF-539
# SK-MEL-28 = tested on: SK-MEL-28
# SK-MEL-2 = tested on: SK-MEL-2
# SK-MEL-5 = tested on: SK-MEL-5
# SK-OV-3 = tested on: SK-OV-3
# SNB-19 = tested on: SNB-19
# SNB-75 = tested on: SNB-75
# SNB-78 = tested on: SNB-78
# SR = tested on: SR
# SW-620 = tested on: SW-620
# TK-10 = tested on: TK-10
# U-251 = tested on: U-251
# UACC-257 = tested on: UACC-257
# UACC-62 = tested on: UACC-62
# UO-31 = tested on: UO-31
# COLO 205 = tested on: COLO 205
# NCI-H226 = tested on: NCI-H226
# SN12C = tested on: SN12C
compound,measurement,setting,value
Cc1ccc([N+](=O)[O-])cc1NC(=O)/C(CC(=O)c1sc(C(N)=S)nc1C)=N\N,GI50,786-0,40.6 µM (inactive)
same,GI50,A498,> 100 µM (inactive)
same,GI50,A549,46.2 µM (inactive)
same,GI50,ACHN,96.2 µM (inactive)
same,GI50,CAKI-1,> 100 µM (inactive)
same,GI50,CCRF-CEM,26.9 µM (inactive)
same,GI50,DLD-1,> 100 µM (inactive)
same,GI50,DMS-114,30.3 µM (inactive)
same,GI50,DMS-273,29.7 µM (inactive)
same,GI50,EKVX,65.3 µM (inactive)
same,GI50,HCC 2998,> 100 µM (inactive)
same,GI50,HCT-116,71 µM (inactive)
same,GI50,HCT-15,> 100 µM
same,GI50,HL-60,43.9 µM (inactive)
same,GI50,HOP-18,71.3 µM (inactive)
same,GI50,HOP-62,> 100 µM (inactive)
same,GI50,HOP-92,62.8 µM (inactive)
same,GI50,HT-29,72.3 µM (inactive)
same,GI50,IGROV-1,30.6 µM (inactive)
same,GI50,K562,41.4 µM (inactive)
same,GI50,KM-20L2,> 100 µM (inactive)
same,GI50,KM12,54.1 µM (inactive)
same,GI50,LOX IMVI,> 100 µM (inactive)
same,GI50,LXFL 529,41.7 µM (inactive)
same,GI50,M14,> 100 µM (inactive)
same,GI50,M19-MEL,71.8 µM (inactive)
same,GI50,MOLT-4,68.5 µM (inactive)
same,GI50,Malme-3M,> 100 µM (inactive)
same,GI50,NCI-H23,31.7 µM (inactive)
same,GI50,NCI-H460,35.1 µM (inactive)
same,GI50,NCI-H522,20.9 µM (inactive)
same,GI50,OVCAR-3,26.9 µM (inactive)
same,GI50,OVCAR-4,31.6 µM (inactive)
same,GI50,OVCAR-5,> 100 µM (inactive)
same,GI50,OVCAR-8,> 100 µM (inactive)
same,GI50,RPMI-8226,> 100 µM (inactive)
same,GI50,RXF 393,> 100 µM (inactive)
same,GI50,RXF 631,31.5 µM (inactive)
same,GI50,SF-268,> 100 µM (inactive)
same,GI50,SF-295,75.7 µM (inactive)
same,GI50,SF-539,> 100 µM (inactive)
same,GI50,SK-MEL-28,> 100 µM (inactive)
same,GI50,SK-MEL-2,> 100 µM (inactive)
same,GI50,SK-MEL-5,90.6 µM (inactive)
same,GI50,SK-OV-3,44.1 µM (inactive)
same,GI50,SNB-19,> 100 µM (inactive)
same,GI50,SNB-75,> 100 µM (inactive)
same,GI50,SNB-78,> 100 µM (inactive)
same,GI50,SR,88.9 µM (inactive)
same,GI50,SW-620,> 100 µM (inactive)
same,GI50,TK-10,> 100 µM (inactive)
same,GI50,U-251,32.1 µM (inactive)
same,GI50,UACC-257,> 100 µM (inactive)
same,GI50,UACC-62,> 100 µM (inactive)
same,GI50,UO-31,48.1 µM (inactive)
O=C1CCC(=O)N2CCCCN12,GI50,786-0,> 100 µM (inactive)
same,GI50,A498,> 100 µM (inactive)
same,GI50,A549,> 100 µM (inactive)
same,GI50,ACHN,> 100 µM (inactive)
same,GI50,CAKI-1,> 100 µM (inactive)
same,GI50,CCRF-CEM,> 100 µM (inactive)
same,GI50,COLO 205,> 100 µM (inactive)
same,GI50,DLD-1,> 100 µM (inactive)
same,GI50,DMS-114,> 100 µM (inactive)
same,GI50,DMS-273,> 100 µM (inactive)
same,GI50,EKVX,> 100 µM (inactive)
same,GI50,HCC 2998,> 100 µM (inactive)
same,GI50,HCT-116,> 100 µM (inactive)
same,GI50,HCT-15,> 100 µM
same,GI50,HL-60,> 100 µM (inactive)
same,GI50,HOP-18,> 100 µM (inactive)
same,GI50,HOP-62,> 100 µM (inactive)
same,GI50,HOP-92,> 100 µM (inactive)
same,GI50,HT-29,> 100 µM (inactive)
same,GI50,IGROV-1,> 100 µM (inactive)
same,GI50,K562,> 100 µM (inactive)
same,GI50,KM-20L2,> 100 µM (inactive)
same,GI50,KM12,> 100 µM (inactive)
same,GI50,LOX IMVI,> 100 µM (inactive)
same,GI50,LXFL 529,> 100 µM (inactive)
same,GI50,M14,> 100 µM (inactive)
same,GI50,M19-MEL,> 100 µM (inactive)
same,GI50,MOLT-4,> 100 µM (inactive)
same,GI50,Malme-3M,> 100 µM (inactive)
same,GI50,NCI-H226,> 100 µM (inactive)
same,GI50,NCI-H23,> 100 µM (inactive)
same,GI50,NCI-H460,> 100 µM (inactive)
same,GI50,NCI-H522,> 100 µM (inactive)
same,GI50,OVCAR-3,> 100 µM (inactive)
same,GI50,OVCAR-4,> 100 µM (inactive)
same,GI50,OVCAR-5,> 100 µM (inactive)
same,GI50,OVCAR-8,> 100 µM (inactive)
same,GI50,RXF 393,> 100 µM (inactive)
same,GI50,RXF 631,> 100 µM (inactive)
same,GI50,SF-268,> 100 µM (inactive)
same,GI50,SF-295,> 100 µM (inactive)
same,GI50,SF-539,> 100 µM (inactive)
same,GI50,SK-MEL-28,> 100 µM (inactive)
same,GI50,SK-MEL-2,> 100 µM (inactive)
same,GI50,SK-MEL-5,> 100 µM (inactive)
same,GI50,SK-OV-3,> 100 µM (inactive)
same,GI50,SN12C,> 100 µM (inactive)
same,GI50,SNB-19,> 100 µM (inactive)
same,GI50,SNB-75,> 100 µM (inactive)
same,GI50,SNB-78,> 100 µM (inactive)
same,GI50,SW-620,> 100 µM (inactive)
same,GI50,TK-10,> 100 µM (inactive)
same,GI50,U-251,> 100 µM (inactive)
same,GI50,UACC-257,> 100 µM (inactive)
same,GI50,UACC-62,> 100 µM (inactive)
same,GI50,UO-31,> 100 µM (inactive)
